Source: US10640495B2, “Heterocycle derivatives having TrkA inhibitory activity” (Shionogi & Co., Ltd., priority 2015, dated 2020)

biological target: human TrkA (Homo sapiens (Human), UniProt P04629); assay: Human TrkA inhibition assay (Test Example 2); type: biochemical; details: Table 153, human TrkA inhibition; read-out: IC50
Procedure, shortened: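 Mobility-shift readout of phosphorylated versus unphosphorylated fluorescent peptide gave conversion ratio, normalized to DMSO and no-enzyme wells; IC50 by logistic fit of 10- or 15-point 3-fold dilutions. Conditions: 1 nmol/L enzyme, 15 min compound preincubation, then 500 μmol/L ATP plus 1.5 μmol/L peptide, 120 min, 37 °C.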

human TrkA, sequence (P04629 440-796): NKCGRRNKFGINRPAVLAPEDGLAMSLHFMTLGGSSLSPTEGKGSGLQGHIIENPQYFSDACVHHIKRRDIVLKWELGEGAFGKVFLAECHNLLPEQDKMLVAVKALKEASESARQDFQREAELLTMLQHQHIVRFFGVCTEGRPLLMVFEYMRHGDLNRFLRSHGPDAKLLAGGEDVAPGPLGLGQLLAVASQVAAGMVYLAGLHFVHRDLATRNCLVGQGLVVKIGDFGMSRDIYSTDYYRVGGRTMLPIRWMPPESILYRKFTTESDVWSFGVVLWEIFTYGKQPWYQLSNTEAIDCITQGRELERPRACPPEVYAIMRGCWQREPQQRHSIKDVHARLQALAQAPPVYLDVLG

IC50	Structure (SMILES)
< 100 nM	COCCN1C[C@@H](NC(=O)Nc2c(C)c(-c3cnc(N4CC(O)C4)nc3)nn2-c2ccccc2)[C@H](c2ccnc(F)c2)O1 (racemic) [Compound I-144]
< 100 nM	COCCN1C[C@@H](NC(=O)Nc2c(C)c(-c3cnc4c(c3)ncn4C)nn2-c2ccccc2)[C@H](c2ccnc(F)c2)O1 (racemic) [Compound I-164]
< 100 nM	COCCN1C[C@@H](NC(=O)Nc2c(C)c(-c3ccn4nc(C)nc4c3)nn2-c2ccccc2)[C@H](c2ccnc(F)c2)O1 (racemic) [Compound I-156]
< 100 nM	COCCN1C[C@@H](NC(=O)Nc2c(C)c(-c3cnc4c(c3)c(CO)nn4C)nn2-c2ccccc2)[C@H](c2cnc(F)c(F)c2)O1 (racemic) [Compound I-84]
< 100 nM	COCCN1C[C@@H](NC(=O)Nc2c(C)c(-c3cnc4nccnc4c3)nn2-c2ccccc2)[C@H](c2ccc(F)c(F)c2)O1 (racemic) [Compound I-134]
< 100 nM	COCCN1C[C@@H](NC(=O)Nc2c(C)c(-c3cccc(C(=O)OC(C)(C)C)c3)nn2-c2ccccc2)[C@H](c2ccc(F)c(F)c2)O1 (racemic) [Compound I-50]
< 100 nM	COCCN1C[C@@H](NC(=O)Nc2c(C)c(-c3cnc(C4CC4)nc3)nn2-c2ccccc2)[C@H](c2cnc(F)c(F)c2)O1 (racemic) [Compound I-70]

same assay, conditions: Table 154, human TrkA inhibition; read-out: IC50

IC50	Structure (SMILES)
< 100 nM	COCCN1C[C@@H](NC(=O)Nc2c(C)c(-c3cnc(OC)c(C(=O)NOC)c3)nn2-c2ccccc2)[C@H](c2ccnc(F)c2)O1 (racemic) [Compound I-260]
< 100 nM	COCC[C@@H]1C[C@@H](NC(=O)Nc2c(C)c(-c3cnc4c(c3)ncn4C)nn2-c2ccccc2)[C@H](c2ccnc(F)c2)O1 [Compound I-276]
< 100 nM	COCCN1C[C@@H](NC(=O)Nc2c(C)c(-c3cnc(C(N)=O)c(OC)c3)nn2-c2ccccc2)[C@H](c2ccnc(F)c2)O1 (racemic) [Compound I-317]
< 100 nM	Cc1c(-c2cnc3c(cnn3C)c2)nn(-c2ccccc2)c1NC(=O)N[C@@H]1CN(CC2CC2)O[C@H]1c1ccc(F)c(F)c1 (racemic) [Compound I-201]
< 100 nM	COCC[C@@H]1C[C@@H](NC(=O)Nc2c(C)c(-c3cnc(N(C)C(=O)OC(C)(C)C)nc3)nn2-c2ccccc2)[C@H](c2ccnc(F)c2)O1 [Compound I-289]
< 100 nM	COCCN1C[C@@H](NC(=O)Nc2c(C)c(-c3cnc4c(c3)[nH]c(=O)n4C)nn2-c2ccccc2)[C@H](c2ccnc(F)c2)O1 (racemic) [Compound I-208]
< 100 nM	COCC[C@@H]1C[C@@H](NC(=O)Nc2c(C)c(-c3cnc(Cl)nc3)nn2-c2ccccc2)[C@H](c2ccnc(F)c2)O1 [Compound I-248]
< 100 nM	CNC(=O)c1nc2cc(-c3nn(-c4ccccc4)c(NC(=O)N[C@@H]4CN(CCOC)O[C@H]4c4ccnc(F)c4)c3C)cnc2n1C (racemic) [Compound I-224]
< 100 nM	COCCN1C[C@@H](NC(=O)Nc2c(C)c(-c3ccnc(C(=O)NOC)c3)nn2-c2ccccc2)[C@H](c2ccc(F)c(F)c2)O1 (racemic) [Compound I-198]
< 100 nM	COCCN1C[C@@H](NC(=O)Nc2c(C)c(-c3cnc4nn(CC(F)(F)F)cc4c3)nn2-c2ccccc2)[C@H](c2ccnc(F)c2)O1 (racemic) [Compound I-243]
< 100 nM	COCCN1C[C@@H](NC(=O)Nc2c(C)c(-c3cnc(Cl)nc3)nn2-c2ccccc2)[C@H](c2ccnc(F)c2)O1 (racemic) [Compound I-249]
< 100 nM	COCC[C@@H]1C[C@@H](NC(=O)Nc2c(C)c(-c3cnc4c(c3)c(C)nn4C)nn2-c2ccccc2)[C@H](c2ccnc(F)c2)O1 [Compound I-274]

same assay, conditions: Table 155, human TrkA inhibition; read-out: IC50

Structure (SMILES)	IC50
COCCN1C[C@@H](NC(=O)Nc2c(C)c(-c3cnc4c(c3)ncn4C)nn2-c2ccccc2)[C@H](c2cc(F)nc(F)c2)O1 (racemic) [Compound I-320]	< 100 nM
COCCN1C[C@@H](NC(=O)Nc2c(C)c(-c3ccc4nc(C)nn4c3)nn2-c2ccccc2)[C@H](c2ccnc(F)c2)O1 [Compound I-359]	< 100 nM
COCCN1C[C@@H](NC(=O)Nc2c(C)c(-c3ccc(C)nc3)nn2-c2ccccc2)[C@H](c2ccnc(F)c2)O1 (racemic) [Compound I-327]	< 100 nM

The next lines start with the values.

IC50	Structure (SMILES)
< 100 nM	COCCN1C[C@@H](NC(=O)Nc2c(C)c(-c3cnc4c(cnn4CC(=O)N4CCN(C)CC4)c3)nn2-c2ccccc2)[C@H](c2ccnc(F)c2)O1 (racemic) [Compound I-467]
< 100 nM	COCCN1C[C@@H](NC(=O)Nc2c(C)c(-c3cnc4c(c3)c(CN3CCCC3)nn4C)nn2-c2ccccc2)[C@H](c2ccnc(F)c2)O1 (racemic) [Compound I-412]
< 100 nM	COCCN1C[C@@H](NC(=O)Nc2c(C)c(-c3ccn(C)c(=O)c3)nn2-c2ccccc2)[C@H](c2ccc(F)c(F)c2)O1 [Compound I-497]
> 1000 nM	CNC(=O)c1cc(NC(=O)N[C@@H]2CN(CCOC)O[C@H]2c2ccnc(F)c2)n(-c2ccccc2)n1 (racemic) [Compound I-388]
< 100 nM	COCCN1C[C@@H](NC(=O)Nc2c(C)c(-c3cnc4c(c3)CN(Cc3ccccc3)CC4)nn2-c2ccccc2)[C@H](c2ccnc(F)c2)O1 (racemic) [Compound I-428]
< 100 nM	COCCN1C[C@@H](NC(=O)Nc2c(C)c(-c3ccc(=O)n(C)c3)nn2-c2ccccc2)[C@H](c2ccc(F)c(F)c2)O1 [Compound I-498]
< 100 nM	COCCN1C[C@@H](NC(=O)Nc2c(C)c(-c3cnc(C4=CCN(C)CC4)nc3)nn2-c2ccccc2)[C@H](c2ccnc(F)c2)O1 (racemic) [Compound I-445]
< 100 nM	COCCN1C[C@@H](NC(=O)Nc2c(C)c(OCC3CN(C(C)=O)CCO3)nn2-c2ccccc2)[C@H](c2ccnc(F)c2)O1 (stereo partly shown) [Compound I-504]
< 100 nM	COCCN1C[C@@H](NC(=O)Nc2c(C)c(-c3cnc4c(c3)ncn4C3CCN(C)CC3)nn2-c2ccccc2)[C@H](c2ccnc(F)c2)O1 (racemic) [Compound I-426]

same assay, conditions: Table 156, human TrkA inhibition; read-out: IC50

IC50	Structure (SMILES)
< 100 nM	CCN1C[C@@H](NC(=O)Nc2c(C)c(OCC3CNCCO3)nn2-c2ccccc2)[C@H](c2ccc(F)c(F)c2)O1 (stereo partly shown) [Compound I-537]
< 100 nM	CCOc1nn(-c2ccccc2)c(NC(=O)N[C@@H]2CN(CC)O[C@H]2c2ccc(F)cc2)c1C (racemic) [Compound I-541]
< 100 nM	COCCN1C[C@@H](NC(=O)Nc2c(C)c(OCC3CN(C)CCO3)nn2-c2ccccc2)[C@H](c2ccc(F)c(F)c2)O1 (single isomer, unassigned) [Compound I-579]
< 100 nM	CCN1C[C@@H](NC(=O)Nc2c(C)c(OCC3CN(C)CCO3)nn2-c2ccccc2)[C@H](c2ccc(F)c(F)c2)O1 (stereo partly shown) [Compound I-548]
< 100 nM	CCN1C[C@@H](NC(=O)Nc2c(C)c(OCC3CN(C(C)=O)CCO3)nn2-c2ccccc2)[C@H](c2ccc(F)c(F)c2)O1 (stereo partly shown) [Compound I-546]
< 100 nM	COCCN1C[C@@H](NC(=O)Nc2c(C)c(C(F)(F)F)nn2-c2ccccc2)[C@H](c2ccnc(F)c2)O1 (racemic) [Compound I-534]
< 100 nM	CCN1C[C@@H](NC(=O)Nc2c(C)c(-c3cnc(OC)c(C(=O)NC)c3)nn2-c2ccccc2)[C@H](c2ccc(F)cc2)O1 (racemic) [Compound I-570]
> 1000 nM	CCN1C[C@H](NC(=O)Nc2c(C)c(OCC3CCN(C)CC3)nn2-c2ccccc2)[C@@H](c2ccc(F)c(F)c2)O1 [Compound I-535]

same assay, conditions: Table 157, human TrkA inhibition; read-out: IC50

IC50	Structure (SMILES)
< 100 nM	COCCN1C[C@@H](NC(=O)Nc2c(C)c(OC3CCN(C)CC3)nn2-c2ccccc2)[C@H](c2ccc(F)c(F)c2)O1 [Compound I-603]
< 100 nM	CCN1C[C@@H](NC(=O)Nc2c(C)c(OCCC3CCNCC3)nn2-c2ccccc2)[C@H](c2ccc(F)c(F)c2)O1 (racemic) [Compound I-671]
> 1000 nM	COc1ncc(-c2nn(-c3ccccc3)c(NC(=O)N[C@@H]3CN(CCC(F)(F)F)O[C@H]3c3ccc(F)c(F)c3)c2C)cn1 (racemic) [Compound I-621]
< 100 nM	CCN1C[C@@H](NC(=O)Nc2c(C)c(OCC3CCN(C(=O)CO)CC3)nn2-c2ccccc2)[C@H](c2ccc(F)c(F)c2)O1 (racemic) [Compound I-607]
< 100 nM	COCCN1C[C@@H](NC(=O)Nc2c(C)c(-c3cnc(N4CCN(C)CC4)nc3)nn2-c2ccccc2)[C@H](c2ccc(F)c(F)c2)O1 [Compound I-598]
< 100 nM	COCCN1C[C@@H](NC(=O)Nc2c(C)c(-c3cnc4c(c3)OCO4)nn2-c2ccccc2)[C@H](c2ccnc(F)c2)O1 (racemic) [Compound I-606]
< 100 nM	COCCN1C[C@@H](NC(=O)Nc2c(C)c(OC3CN(C)C3)nn2-c2ccccc2)[C@H](c2ccc(F)c(F)c2)O1 [Compound I-600]
< 100 nM	COCCN1C[C@@H](NC(=O)Nc2c(C)c(-c3cnc4oc(C)nc4c3)nn2-c2ccccc2)[C@H](c2ccnc(F)c2)O1 (racemic) [Compound I-596]

same assay, conditions: human TrkA 1 nmol/L, ATP 500 μmol/L, 120 min at 37° C.; read-out: IC50 values (TrkA phosphorylation inhibition)

IC50	Structure (SMILES)
1 nM	COCCN1C[C@@H](NC(=O)Nc2c(C)c(-c3cc(C(=O)NC4CCOCC4)c(=O)n(C)c3)nn2-c2ccccc2)[C@H](c2ccnc(F)c2)O1 (racemic) [Compound I-108]
3.7 nM	COCCN1C[C@@H](NC(=O)Nc2c(C)c(-c3ccc(N4CCC(O)CC4)nc3)nn2-c2ccccc2)[C@H](c2ccnc(F)c2)O1 (racemic) [Compound I-278]
0.55 nM	COCCN1C[C@@H](NC(=O)Nc2c(C)c(-c3cnc(N=S(C)(C)=O)nc3)nn2-c2ccccc2)[C@H](c2ccc(F)c(F)c2)O1 [Compound I-268]
1.2 nM	COCCN1C[C@@H](NC(=O)Nc2c(C)c(-c3ccc(CN=S(C)(C)=O)cc3)nn2-c2ccccc2)[C@H](c2ccc(F)c(F)c2)O1 [Compound I-332]
0.52 nM	CNc1ncc(-c2nn(-c3ccccc3)c(NC(=O)N[C@@H]3CN(CCOC)O[C@H]3c3cnc(F)c(F)c3)c2C)cn1 [Compound I-135]
